# Experimental data as given in ChEMBL document CHEMBL1201862, “PubChem BioAssay data set” (2004).
# Active and inactive are the calls of the source.
# Legend:
# [1] = HepG2 cell cytotoxicity, dose response, cytotoxicity control, ATP luminescence, cherry-pick, activator set 2 (AID 1053143); assay type: functional, cell-based
# [2] = biological target: Cytochrome P450 2C9 (Homo sapiens, UniProt P11712)
# [3] = biological target: Cytochrome P450 3A4 (Homo sapiens, UniProt P08684);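 also: CYP3A4 tested as one member of a cytochrome P450 panel screen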
# [4] = biological target: Cytochrome P450 2C19 (Homo sapiens, UniProt P33261); assay: Cytochrome panel assay with activity outcomes. Panel member name: p450-cyp2c19 Compounds with AC50 equal or less than 10 uM are considered active; assay type: functional
# [5] = biological target: Major prion protein (Homo sapiens, UniProt P04156); assay type: functional, cell-based
# [6] = cells
# [7] = Late stage assay provider results from the probe development effort to identify inhibitors of the Plasmodium falciparum M18 Aspartyl Aminopeptidase (M18AAP): radiolabel-based cell-based dose response assay to identify compounds that inhibit P. falciparum growth in RBCs, Set 2..; assay type: functional
# [8] = biological target: T1, Fatty acid synthase (Homo sapiens, UniProt P49327); assay: FAS thioesterase domain inhibitors, dose response, biochemical, endpoint fluorescence intensity, uHTS hits (AID 624327); assay type: functional;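 also: fluorescence from hydrolysis of an O-methyl fluorescein acyl ester substrate by the enzyme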
# [9] = biological target: T1, Fatty acid synthase; assay: FAS thioesterase domain inhibitors, dose response, biochemical, kinetic fluorescence intensity (AID 624326); assay type: functional;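 also: rate of fluorescence rise from hydrolysis of a fluorogenic O-methyl fluorescein ester substrate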
# [10] = biological target: T2, Oxysterols receptor LXR-beta (Homo sapiens, UniProt P55055); assay type: functional, cell-based;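 also: agonist activity at LXR measured by a cell-based luminescence readout across a dose range, run as a counterscreen for daf-12 agonists; HEK293 cells with Gal4-LXR fusion and GAL4-driven luciferase reporter; potency for activation of Gal4-LXR reporter so compounds are agonists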
# T2 sequence (P55055 whole entry): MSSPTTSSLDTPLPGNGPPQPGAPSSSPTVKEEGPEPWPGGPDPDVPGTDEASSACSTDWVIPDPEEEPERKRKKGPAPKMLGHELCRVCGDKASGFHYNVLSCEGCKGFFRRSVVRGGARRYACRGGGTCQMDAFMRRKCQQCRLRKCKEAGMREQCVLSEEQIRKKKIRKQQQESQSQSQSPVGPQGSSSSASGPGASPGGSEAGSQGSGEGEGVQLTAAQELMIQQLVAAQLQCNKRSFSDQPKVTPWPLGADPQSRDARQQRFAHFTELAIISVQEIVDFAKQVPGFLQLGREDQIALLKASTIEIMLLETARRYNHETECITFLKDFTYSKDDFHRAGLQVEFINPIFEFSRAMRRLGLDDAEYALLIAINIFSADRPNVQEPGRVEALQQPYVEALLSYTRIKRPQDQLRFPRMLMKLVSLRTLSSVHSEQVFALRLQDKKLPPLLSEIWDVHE
# [11] = biological target: T3, DNA repair and recombination protein RAD54-like (Homo sapiens, UniProt Q92698); assay: inhibitors of human RAD54 branch migration, confirmation, biochemical, fluorescence, cherry-picked samples, dose series (AID 651657); assay type: functional
# T3 sequence (Q92698 whole entry): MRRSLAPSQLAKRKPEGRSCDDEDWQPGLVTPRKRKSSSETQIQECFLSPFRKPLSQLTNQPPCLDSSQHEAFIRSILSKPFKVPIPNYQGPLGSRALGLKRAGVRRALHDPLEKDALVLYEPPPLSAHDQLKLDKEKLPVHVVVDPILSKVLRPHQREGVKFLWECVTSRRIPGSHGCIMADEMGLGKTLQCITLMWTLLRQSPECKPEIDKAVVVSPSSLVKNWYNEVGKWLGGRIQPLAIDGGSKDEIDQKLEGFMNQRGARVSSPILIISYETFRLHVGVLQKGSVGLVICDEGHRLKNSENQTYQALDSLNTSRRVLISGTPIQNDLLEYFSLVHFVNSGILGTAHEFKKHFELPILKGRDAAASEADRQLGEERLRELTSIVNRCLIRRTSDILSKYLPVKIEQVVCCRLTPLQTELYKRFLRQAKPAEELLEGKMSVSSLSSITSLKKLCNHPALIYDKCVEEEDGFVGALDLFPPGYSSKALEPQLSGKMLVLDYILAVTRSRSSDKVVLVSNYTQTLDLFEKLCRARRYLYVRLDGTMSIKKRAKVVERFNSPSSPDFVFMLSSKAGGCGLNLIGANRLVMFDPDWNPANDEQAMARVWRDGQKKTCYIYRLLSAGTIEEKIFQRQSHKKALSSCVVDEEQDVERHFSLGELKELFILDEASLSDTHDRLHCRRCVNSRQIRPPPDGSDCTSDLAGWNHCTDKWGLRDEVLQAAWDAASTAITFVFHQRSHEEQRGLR
# [12] = Luminescence Cell-Based Dose Retest to Confirm Inhibitors of Cancer Stem Cells. [Related pubchem assays (depositor defined):AID2717, AID2721]; assay type: functional; settings: Homo sapiens
# [13] = P. falciparum Dd2 growth inhibitors, dose response, SYBR Green, cherry-picked samples (AID 1159567); assay type: functional, cell-based
# [14] = P. falciparum ATP4 D1247Y mutant growth inhibitors, dose response, NITD609-resistant line, SYBR Green, dry powder (AID 1159571); assay type: functional, cell-based;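 also: parasites synchronized at ring stage by sorbitol before testing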
# [15] = P. falciparum 3D7-ScDHODH growth inhibitors, dose response, SYBR Green, dry powder samples (AID 1159570); assay type: functional, cell-based;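 also: parasite growth measured after 72 hours of compound exposure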
# [16] = HepG2 cell cytotoxicity, dose response, cytotoxicity control, plate reader, dry powder samples (AID 1159569); assay type: functional, cell-based;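 also: inhibitor potency with signal falling toward the positive control level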
# [17] = P. falciparum Dd2 growth inhibitors, dose response, SYBR Green, dry powder samples (AID 1159566); assay type: functional, cell-based;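 also: potency for growth inhibition with lower SYBR green DNA signal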
structure (smiles),measurement,setting,value
O=C(NCC1CCCO1)c1ccc2c3n(nc2c1)-c1ccccc1CO3 (configuration not stated),AC50,[1],> 52 µM (inactive)
CC(=O)c1nnn(-c2nc(N)nc(N(c3ccccc3)c3ccccc3)n2)c1C,AC50,[2],31.6 µM (inconclusive)
same,AC50,[3],inconclusive
same,AC50,[4],25.1 µM (inconclusive)
same,IC50,[5],1.92 µM (active)
same,IC50,[6],> 138 µM (inactive)
COc1ccc(CCN(C)c2ccnc3ccccc23)cc1OC,IC50,[7],12 µM (inactive)
Cc1ccc(NC(=O)c2cc(S(=O)(=O)N(C)C)ccc2N2CCCC2)cc1F,IC50,[8],13.3 µM (active)
same,IC50,[9],6.47 µM (active)
same,IC50,[5],9.92 µM (active)
same,IC50,[6],> 138 µM (inactive)
COc1cc(Br)c(CCNc2c3c(nc4ccccc24)CCCC3)cc1OC,IC50,[7],3 µM (active)
O=c1[nH]c(=O)n(C2CC(O)C(CO)O2)cc1I (configuration not stated),EC50,[10],> 67.6 µM (inactive)
O=C(Nc1ccccn1)c1csc2c1CCCC2,EC50,[10],> 67.5 µM (inactive)
COc1ccccc1Nc1c2ccccc2nc2ccccc12,AC50,[11],29.8 µM (active)
CC(Cc1ccccc1)NCCC(c1ccccc1)c1ccccc1 (configuration not stated),AC50,[1],14.8 µM (active)
same,AC50,[12],10 µM (active)
C[C@@H]1CN([C@H](C)CO)S(=O)(=O)c2ccc(-c3cccc(C(=O)N(C)C)c3)cc2O[C@H]1CN(C)Cc1ccc2c(c1)OCO2,AC50,[13],2.57 µM (active)
same,AC50,[14],1.51 µM (active)
same,AC50,[15],2.27 µM (active)
same,AC50,[16],64.7 µM (active)
same,AC50,[17],1.3 µM (active)
